Source: publication PMC9283466, “In silico identification of two peptides with antibacterial activity against multidrug-resistant Staphylococcus aureus” (NPJ Biofilms and Microbiomes, 2022)
In brackets after ≈: the same amount, converted by molar mass.

How the values were obtained:
S. aureus RN4220 = test: MIC, broth microdilution; assay type: cell-based, Staphylococcus aureus; settings: Staphylococcus aureus, sensitive, read-out: MIC
Protocol: (§1) To determine the antimicrobial activity of the new antimicrobial peptides, HG2 and HG4, their minimum inhibitory concentrations (MICs) were determined by broth microdilution method[51] in cation adjusted Mueller Hinton broth (MHB) following the International Organisation for Standardisation (ISO) 20776-1 standard for MIC testing using a final bacterial inoculum of 5 × 10^5 CFU/ml[52]. […] The peptides dissolved in sterile distilled water were added to bacteria culture and incubated overnight at appropriate conditions. The MICs of the peptides and comparator antibiotics were recorded after 18–24 h. The minimum bactericidal concentrations (MBCs) were also determined and were taken as the lowest concentration of the antimicrobial that prevented the growth of bacterial cells after the subculture of cells (from MIC treatment) onto antibiotic-free media.

K. pneumoniae 518842 = test: microbe, parasite or virus in culture; assay type: cell-based, Klebsiella pneumoniae; settings: Klebsiella pneumoniae, 518842
Protocol: as §1

K. pneumoniae 526903 = test: microbe, parasite or virus in culture; assay type: cell-based, Klebsiella pneumoniae; settings: Klebsiella pneumoniae; K. pneumoniae 526903; sensitive; read-out: MIC
Protocol: as §1

[1] = tested on: K. pneumoniae ATCC 700603; test: microbe, parasite or virus in culture; assay type: cell-based, Klebsiella pneumoniae; settings: Klebsiella pneumoniae, ATCC700603; K. pneumoniae ATCC 700603; SHV-18; read-out: MIC
Protocol: as §1

K. pneumoniae NCTC 13442 = test: microbe, parasite or virus in culture; assay type: cell-based, Klebsiella pneumoniae; settings: Klebsiella pneumoniae, NCTC13442; K. pneumoniae NCTC 13442; OXA-48; read-out: MIC
Protocol: as §1

[2] = tested on: A. baumannii (IMI, MER resistant; strain ID not given); test: microbe, parasite or virus in culture; assay type: cell-based, Acinetobacter baumannii; settings: Acinetobacter baumannii, A. baumannii, no strain ID, MER, read-out: MIC
Protocol: as §1

A. baumannii 515722 = test: microbe, parasite or virus in culture; assay type: cell-based, Acinetobacter baumannii; settings: Acinetobacter baumannii; A. baumannii 515722; sensitive; read-out: MIC
Protocol: as §1

A. baumannii 515785 = test: microbe, parasite or virus in culture; assay type: cell-based, Acinetobacter baumannii; settings: Acinetobacter baumannii, 515785
Protocol: as §1

A. baumannii 515908 = test: microbe, parasite or virus in culture; assay type: cell-based, Acinetobacter baumannii; settings: Acinetobacter baumannii; A. baumannii 515908; sensitive; read-out: MIC
Protocol: as §1

B. cereus = test: microbe, parasite or virus in culture; assay type: cell-based, Bacillus cereus; settings: Bacillus cereus; B. cereus; read-out: MIC
Protocol: as §1

[3] = tested on: P. aeruginosa (CF) AMT0060; test: microbe, parasite or virus in culture; assay type: cell-based, Pseudomonas aeruginosa; settings: Pseudomonas aeruginosa; P. aeruginosa (CF) AMT0060; read-out: MIC
Protocol: as §1

P. aeruginosa (CF) C3719 = test: microbe, parasite or virus in culture; assay type: cell-based, Pseudomonas aeruginosa; settings: Pseudomonas aeruginosa; P. aeruginosa (CF) C3719; read-out: MIC
Protocol: as §1

[4] = tested on: P. aeruginosa (CF) LES400; test: microbe, parasite or virus in culture; assay type: cell-based, Pseudomonas aeruginosa; settings: Pseudomonas aeruginosa; P. aeruginosa (CF) LES400; read-out: MIC
Protocol: as §1

P. aeruginosa PA01 = test: microbe, parasite or virus in culture; assay type: cell-based, Pseudomonas aeruginosa; settings: Pseudomonas aeruginosa; P. aeruginosa PA01; read-out: MIC
Protocol: as §1

P. aeruginosa = test: microbe, parasite or virus in culture; assay type: cell-based, Pseudomonas aeruginosa; settings: Pseudomonas aeruginosa; P. aeruginosa; Supplementary Table 5; read-out: Minimum inhibitory Concentrations MICs
Protocol: as §1

Sal. typhimurium SL1344 = test: microbe, parasite or virus in culture; assay type: cell-based, Salmonella enterica serovar Typhimurium; settings: Salmonella enterica; Sal. typhimurium SL1344; read-out: MIC
Protocol: as §1

Sal. typhimurium = test: microbe, parasite or virus in culture; assay type: cell-based, Salmonella enterica serovar Typhimurium; settings: Salmonella enterica; Sal. typhimurium; Supplementary Table 5; read-out: Minimum inhibitory Concentrations MICs
Protocol: as §1

E. coli K12 = test: microbe, parasite or virus in culture; assay type: cell-based, Escherichia coli; settings: Escherichia coli; E. coli K12; read-out: MIC
Protocol: as §1

E. coli = test: microbe, parasite or virus in culture; assay type: cell-based, Escherichia coli; settings: Escherichia coli, read-out: Minimum inhibitory Concentrations MICs
Protocol: as §1

EMRA-15 = test: microbe, parasite or virus in culture; assay type: cell-based, Staphylococcus aureus; settings: Staphylococcus aureus; EMRA-15; Supplementary Table 5; read-out: Minimum inhibitory Concentrations MICs
Protocol: as §1

S. aureus EMRSA-15 = test: microbe, parasite or virus in culture; assay type: cell-based, Staphylococcus aureus; settings: Staphylococcus aureus; S. aureus EMRSA-15; resistances MRSA, Cip; read-out: MIC
Protocol: as §1

S. aureus = test: microbe, parasite or virus in culture; assay type: cell-based, Staphylococcus aureus; settings: Staphylococcus aureus, read-out: Minimum inhibitory Concentrations MICs
Protocol: as §1

Ent. faecalis JH2-2 = test: microbe, parasite or virus in culture; assay type: cell-based, Enterococcus faecalis; settings: Enterococcus faecalis, JH22; Ent. faecalis JH2-2; read-out: MIC
Protocol: as §1

Ent. faecalis = test: microbe, parasite or virus in culture; assay type: cell-based, Enterococcus faecalis; settings: Enterococcus faecalis; Ent. faecalis; Supplementary Table 5; read-out: Minimum inhibitory Concentrations MICs
Protocol: as §1

[5] = tested on: L. monocytogenes NCTC 11994; test: microbe, parasite or virus in culture; assay type: cell-based, Listeria monocytogenes; settings: Listeria monocytogenes, NCTC11994; L. monocytogenes NCTC 11994; read-out: MIC
Protocol: as §1

List. monocytogenes = test: microbe, parasite or virus in culture; assay type: cell-based, Listeria monocytogenes; settings: Listeria monocytogenes; List. monocytogenes; Supplementary Table 5; read-out: Minimum inhibitory Concentrations MICs
Protocol: as §1

O=C(O)c1cn(C2CC2)c2cc(N3CCNCC3)c(F)cc2c1=O [Cip, ciprofloxacin, reference compound]
MIC (S. aureus RN4220): > 256 mg/L | MIC (K. pneumoniae 518842): > 128 mg/L | MIC (K. pneumoniae 526903): 0.03 mg/L (≈ 0.0905 µM) | MIC [1]: 0.25 mg/L (≈ 0.754 µM) | MIC (K. pneumoniae NCTC 13442): 64 mg/L (≈ 193 µM) | MIC [2]: 16 mg/L (≈ 48.3 µM) | MIC (A. baumannii 515722): 16 mg/L (≈ 48.3 µM) | MIC (A. baumannii 515785): > 128 mg/L | MIC (A. baumannii 515908): 16 mg/L (≈ 48.3 µM) | MIC (B. cereus): 0.015 mg/L (≈ 0.0453 µM) | MIC [3]: 0.12 mg/L (≈ 0.362 µM) | MIC (P. aeruginosa (CF) C3719): 4 mg/L (≈ 12.1 µM) | MIC [4]: 4 mg/L (≈ 12.1 µM) | MIC (P. aeruginosa PA01): 0.5 mg/L (≈ 1.51 µM) | MIC (P. aeruginosa): 0.49 mg/L (≈ 1.48 µM) | MIC (Sal. typhimurium SL1344): 0.12 mg/L (≈ 0.362 µM) | MIC (Sal. typhimurium): 0.12 mg/L (≈ 0.362 µM) | MIC (E. coli K12): 0.06 mg/L (≈ 0.181 µM) | MIC (E. coli): 0.06 mg/L (≈ 0.181 µM) | MIC (EMRA-15): > 250 mg/L | MIC (S. aureus EMRSA-15): > 256 mg/L | MIC (S. aureus): > 250 mg/L | MIC (Ent. faecalis JH2-2): 64 mg/L (≈ 193 µM) | MIC (Ent. faecalis): 62.5 mg/L (≈ 189 µM) | MIC [5]: 64 mg/L (≈ 193 µM) | MIC (List. monocytogenes): 62.5 mg/L (≈ 189 µM)
